According to PubChem BioAssay AID434974 (The Scripps Research Institute Molecular Screening Center, 2010):
Calls of active or inactive are those of the source. How the calls were made is not given here.

Key:
Test in all cases: receptor and transporter displacement selectivity profile – biochemical, radioligand binding, PDSP, selectivity assay for NOX1 inhibitor project, profiling panel (AID 434974)
[1] = target: Alpha-2A adrenergic receptor (Homo sapiens) (UniProt P08913); details: Adrenergic receptor Alpha2A, at 10 µM, hits give high values
Sequence of Alpha-2A adrenergic receptor (Homo sapiens) (P08913 whole entry, looked up): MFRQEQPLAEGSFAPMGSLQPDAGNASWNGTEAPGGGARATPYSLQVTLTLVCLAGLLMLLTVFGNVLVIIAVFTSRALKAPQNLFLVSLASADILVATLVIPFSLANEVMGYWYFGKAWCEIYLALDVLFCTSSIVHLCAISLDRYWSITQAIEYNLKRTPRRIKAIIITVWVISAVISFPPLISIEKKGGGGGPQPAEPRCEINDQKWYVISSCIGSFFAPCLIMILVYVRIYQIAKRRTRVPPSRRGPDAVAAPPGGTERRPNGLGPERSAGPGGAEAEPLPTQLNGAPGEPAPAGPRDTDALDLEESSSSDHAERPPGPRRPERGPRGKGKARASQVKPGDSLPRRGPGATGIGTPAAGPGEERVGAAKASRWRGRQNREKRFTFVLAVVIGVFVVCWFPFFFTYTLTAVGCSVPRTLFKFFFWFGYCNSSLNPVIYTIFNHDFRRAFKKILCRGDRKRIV

[2] = system: Nicotinic receptor A4B2; details: at 10 µM, hits give high values
[3] = system: Prostaglandin receptor EP4; details: at 10 µM, hits give high values
[4] = system: Muscarinic receptor M5; details: at 10 µM, hits give high values
[5] = system: Opioid receptor MOR; details: at 10 µM, hits give high values
[6] = system: Serotonin receptor 5ht1a; details: at 10 µM, hits give high values
[7] = target: Alpha-2C adrenergic receptor (Homo sapiens) (UniProt P18825); details: Adrenergic receptor Alpha2C, at 10 µM, hits give high values
Sequence of Alpha-2C adrenergic receptor (Homo sapiens) (P18825 whole entry, looked up): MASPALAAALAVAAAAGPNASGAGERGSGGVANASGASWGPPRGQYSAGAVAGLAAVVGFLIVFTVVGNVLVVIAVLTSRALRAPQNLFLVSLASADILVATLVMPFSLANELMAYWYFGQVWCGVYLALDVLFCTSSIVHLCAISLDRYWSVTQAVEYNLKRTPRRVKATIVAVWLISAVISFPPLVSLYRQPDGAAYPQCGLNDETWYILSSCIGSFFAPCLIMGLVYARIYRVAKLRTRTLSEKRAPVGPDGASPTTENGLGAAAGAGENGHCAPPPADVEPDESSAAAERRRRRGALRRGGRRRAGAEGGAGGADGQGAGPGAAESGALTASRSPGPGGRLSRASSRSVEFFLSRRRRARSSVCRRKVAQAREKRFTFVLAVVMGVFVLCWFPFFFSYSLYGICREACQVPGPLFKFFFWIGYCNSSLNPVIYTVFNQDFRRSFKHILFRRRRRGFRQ

[8] = system: Vasopressin receptor V2; details: at 10 µM, hits give high values
[9] = system: Nicotinic receptor A3B2; details: at 10 µM, hits give high values
[10] = system: Histamine receptor H1; details: at 10 µM, hits give high values
[11] = system: Serotonin receptor 5ht2a; details: at 10 µM, hits give high values
[12] = system: Serotonin receptor 5ht6; details: at 10 µM, hits give high values
[13] = system: Serotonin receptor 5ht1d; details: at 10 µM, hits give high values
[14] = target: Oxytocin receptor (Homo sapiens) (UniProt P30559); details: at 10 µM, hits give high values
Sequence of Oxytocin receptor (Homo sapiens) (P30559 whole entry, looked up): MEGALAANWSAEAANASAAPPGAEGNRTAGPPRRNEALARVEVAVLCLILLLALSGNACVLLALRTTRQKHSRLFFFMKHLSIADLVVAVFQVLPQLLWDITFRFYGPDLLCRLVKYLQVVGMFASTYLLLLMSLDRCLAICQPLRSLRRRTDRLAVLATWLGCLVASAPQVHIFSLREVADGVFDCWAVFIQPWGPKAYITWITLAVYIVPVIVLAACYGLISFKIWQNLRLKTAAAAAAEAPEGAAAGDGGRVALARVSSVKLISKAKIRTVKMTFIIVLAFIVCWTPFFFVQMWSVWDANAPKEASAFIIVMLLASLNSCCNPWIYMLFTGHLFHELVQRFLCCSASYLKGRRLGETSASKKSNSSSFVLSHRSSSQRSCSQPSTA

[15] = target: Muscarinic acetylcholine receptor M1 (Homo sapiens) (UniProt P11229); details: at 10 µM, hits give high values
Sequence of Muscarinic acetylcholine receptor M1 (Homo sapiens) (P11229 whole entry, looked up): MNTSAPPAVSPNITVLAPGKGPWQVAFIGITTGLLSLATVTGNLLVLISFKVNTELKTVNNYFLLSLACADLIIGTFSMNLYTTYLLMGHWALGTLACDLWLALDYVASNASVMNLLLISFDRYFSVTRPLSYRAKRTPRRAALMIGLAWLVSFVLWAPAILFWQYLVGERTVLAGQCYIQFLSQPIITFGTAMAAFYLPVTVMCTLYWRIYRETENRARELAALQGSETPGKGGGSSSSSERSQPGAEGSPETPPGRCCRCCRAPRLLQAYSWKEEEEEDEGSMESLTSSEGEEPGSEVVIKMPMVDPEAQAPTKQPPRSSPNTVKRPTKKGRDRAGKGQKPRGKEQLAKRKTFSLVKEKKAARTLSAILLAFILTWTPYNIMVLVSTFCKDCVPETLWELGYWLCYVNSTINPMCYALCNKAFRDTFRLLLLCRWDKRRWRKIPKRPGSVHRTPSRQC

[16] = system: Biogenic amine transporter NET; details: at 10 µM, hits give high values
[17] = system: Sigma receptor 2; details: at 10 µM, hits give high values
[18] = system: Nicotinic receptor A2B4; details: at 10 µM, hits give high values
[19] = target: Beta-2 adrenergic receptor (Homo sapiens) (UniProt P07550); details: Adrenergic receptor Beta2, at 10 µM, hits give high values
Sequence of Beta-2 adrenergic receptor (Homo sapiens) (P07550 whole entry, looked up): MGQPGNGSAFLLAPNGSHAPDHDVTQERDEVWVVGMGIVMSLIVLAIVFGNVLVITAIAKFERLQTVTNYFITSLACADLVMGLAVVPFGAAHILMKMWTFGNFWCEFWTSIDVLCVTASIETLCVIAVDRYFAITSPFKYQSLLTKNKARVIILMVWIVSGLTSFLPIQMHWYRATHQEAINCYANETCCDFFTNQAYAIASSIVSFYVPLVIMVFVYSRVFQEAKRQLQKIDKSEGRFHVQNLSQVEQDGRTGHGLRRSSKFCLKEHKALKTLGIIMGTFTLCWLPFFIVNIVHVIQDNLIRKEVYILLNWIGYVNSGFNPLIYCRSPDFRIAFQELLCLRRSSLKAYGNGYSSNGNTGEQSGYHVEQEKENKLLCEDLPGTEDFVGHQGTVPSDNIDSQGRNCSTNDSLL

[20] = system: Vasopressin receptor V1B; details: at 10 µM, hits give high values
[21] = target: Cannabinoid receptor 2 (Homo sapiens) (UniProt P34972); details: Cannabinoid receptor CB2, at 10 µM, hits give high values
Sequence of Cannabinoid receptor 2 (Homo sapiens) (P34972 whole entry, looked up): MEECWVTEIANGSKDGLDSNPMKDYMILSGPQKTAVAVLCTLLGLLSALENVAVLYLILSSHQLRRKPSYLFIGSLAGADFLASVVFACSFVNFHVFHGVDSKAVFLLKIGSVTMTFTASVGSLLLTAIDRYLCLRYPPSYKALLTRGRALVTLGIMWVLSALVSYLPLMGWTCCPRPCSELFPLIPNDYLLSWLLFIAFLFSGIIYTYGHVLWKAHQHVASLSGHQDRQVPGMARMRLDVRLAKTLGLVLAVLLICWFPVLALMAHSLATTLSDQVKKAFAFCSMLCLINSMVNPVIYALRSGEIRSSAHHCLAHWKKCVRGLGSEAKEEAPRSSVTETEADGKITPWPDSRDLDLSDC

[22] = system: Histamine receptor H4; details: at 10 µM, hits give high values
[23] = system: Serotonin receptor 5ht2c; details: at 10 µM, hits give high values
[24] = system: Vasopressin receptor V1A; details: at 10 µM, hits give high values
[25] = target: Kappa-type opioid receptor (Homo sapiens) (UniProt P41145); details: Opioid receptor KOR, at 10 µM, hits give high values
[26] = system: Serotonin receptor 5ht7; details: at 10 µM, hits give high values
[27] = system: Adrenergic receptor Alpha1B; details: at 10 µM, hits give high values
[28] = system: Nicotinic receptor A2B2; details: at 10 µM, hits give high values
[29] = target: D(1A) dopamine receptor (Homo sapiens) (UniProt P21728); details: Dopamine receptor D1, at 10 µM, hits give high values
Sequence of D(1A) dopamine receptor (Homo sapiens) (P21728 whole entry, looked up): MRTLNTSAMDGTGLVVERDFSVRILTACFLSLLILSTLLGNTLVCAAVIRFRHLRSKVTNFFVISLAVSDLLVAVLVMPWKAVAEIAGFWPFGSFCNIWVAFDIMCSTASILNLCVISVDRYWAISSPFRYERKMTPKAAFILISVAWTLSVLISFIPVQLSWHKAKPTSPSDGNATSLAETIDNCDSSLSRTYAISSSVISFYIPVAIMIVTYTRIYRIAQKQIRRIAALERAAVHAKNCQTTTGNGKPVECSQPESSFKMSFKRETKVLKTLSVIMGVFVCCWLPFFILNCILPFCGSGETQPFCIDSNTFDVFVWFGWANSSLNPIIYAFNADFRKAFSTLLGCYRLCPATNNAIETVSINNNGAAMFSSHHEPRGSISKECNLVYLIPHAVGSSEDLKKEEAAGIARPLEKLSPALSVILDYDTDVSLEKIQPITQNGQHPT

[30] = target: D(1B) dopamine receptor (Homo sapiens) (UniProt P21918); details: Dopamine receptor D5, at 10 µM, hits give high values
[31] = system: Adrenergic receptor Beta3; details: at 10 µM, hits give high values
[32] = system: Biogenic amine transporter SERT; details: at 10 µM, hits give high values
[33] = system: BZP Rat Brain Site; details: at 10 µM, hits give high values
[34] = system: Prostaglandin receptor EP3; details: at 10 µM, hits give high values
[35] = system: Serotonin receptor 5ht5a; details: at 10 µM, hits give high values
[36] = system: Ca+ Channel; details: at 10 µM, hits give high values
[37] = system: Biogenic amine transporter DAT; details: at 10 µM, hits give high values
[38] = system: GABA receptor GABAa a1; details: at 10 µM, hits give high values
[39] = target: 5-hydroxytryptamine receptor 2B (Homo sapiens) (UniProt P41595); details: Serotonin receptor 5ht2b, at 10 µM, hits give high values
Sequence of 5-hydroxytryptamine receptor 2B (Homo sapiens) (P41595 whole entry, looked up): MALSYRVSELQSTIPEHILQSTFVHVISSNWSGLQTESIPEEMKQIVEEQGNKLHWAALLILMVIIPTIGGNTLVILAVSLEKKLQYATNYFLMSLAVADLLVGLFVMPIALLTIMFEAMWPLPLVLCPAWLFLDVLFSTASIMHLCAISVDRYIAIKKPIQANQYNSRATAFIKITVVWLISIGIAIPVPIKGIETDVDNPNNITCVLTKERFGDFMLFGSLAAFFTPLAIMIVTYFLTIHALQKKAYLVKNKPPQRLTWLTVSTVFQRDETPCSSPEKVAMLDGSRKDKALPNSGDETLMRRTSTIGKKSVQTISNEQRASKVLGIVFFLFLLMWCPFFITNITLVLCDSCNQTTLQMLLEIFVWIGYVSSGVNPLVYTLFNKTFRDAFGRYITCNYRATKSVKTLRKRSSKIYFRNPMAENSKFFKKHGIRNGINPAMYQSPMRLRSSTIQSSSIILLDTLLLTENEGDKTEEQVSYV

[40] = target: Delta-type opioid receptor (Homo sapiens) (UniProt P41143); details: Opioid receptor DOR, at 10 µM, hits give high values
Sequence of Delta-type opioid receptor (Homo sapiens) (P41143 whole entry, looked up): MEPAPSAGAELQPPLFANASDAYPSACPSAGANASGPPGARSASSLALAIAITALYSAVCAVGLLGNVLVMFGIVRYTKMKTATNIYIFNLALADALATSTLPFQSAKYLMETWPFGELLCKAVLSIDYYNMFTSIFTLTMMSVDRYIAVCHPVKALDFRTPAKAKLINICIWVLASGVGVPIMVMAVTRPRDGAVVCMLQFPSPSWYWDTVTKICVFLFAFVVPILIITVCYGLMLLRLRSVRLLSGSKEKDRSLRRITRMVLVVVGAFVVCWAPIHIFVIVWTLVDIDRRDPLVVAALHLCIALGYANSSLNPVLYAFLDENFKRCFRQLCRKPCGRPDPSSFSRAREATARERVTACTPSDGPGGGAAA

[41] = system: GABA receptor GABAa; details: at 10 µM, hits give high values
[42] = target: Muscarinic acetylcholine receptor M3 (Homo sapiens) (UniProt P20309); details: at 10 µM, hits give high values
[43] = system: Muscarinic receptor M4; details: at 10 µM, hits give high values
[44] = system: Cannabinoid receptor CB1; details: at 10 µM, hits give high values
[45] = system: Dopamine receptor D2; details: at 10 µM, hits give high values
[46] = system: Serotonin receptor 5ht3; details: at 10 µM, hits give high values
[47] = system: GABA receptor PBR; details: at 10 µM, hits give high values
[48] = system: Nicotinic receptor A4B4; details: at 10 µM, hits give high values
[49] = system: Adrenergic receptor Alpha1D; details: at 10 µM, hits give high values
[50] = system: Adrenergic receptor Beta1; details: at 10 µM, hits give high values
[51] = system: Serotonin receptor 5ht1e; details: at 10 µM, hits give high values
[52] = target: D(3) dopamine receptor (Homo sapiens) (UniProt P35462); details: Dopamine receptor D3, at 10 µM, hits give high values
Sequence of D(3) dopamine receptor (Homo sapiens) (P35462 whole entry, looked up): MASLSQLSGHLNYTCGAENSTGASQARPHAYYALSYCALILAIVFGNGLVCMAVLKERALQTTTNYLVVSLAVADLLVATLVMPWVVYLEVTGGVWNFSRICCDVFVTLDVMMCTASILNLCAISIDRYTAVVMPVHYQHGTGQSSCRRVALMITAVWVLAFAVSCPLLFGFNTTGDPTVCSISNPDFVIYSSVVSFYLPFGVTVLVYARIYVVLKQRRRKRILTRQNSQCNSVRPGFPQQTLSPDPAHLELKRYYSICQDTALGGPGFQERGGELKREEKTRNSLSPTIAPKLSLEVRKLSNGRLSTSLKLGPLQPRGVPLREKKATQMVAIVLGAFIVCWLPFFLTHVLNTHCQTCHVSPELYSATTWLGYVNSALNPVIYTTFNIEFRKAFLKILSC

[53] = system: Histamine receptor H3; details: at 10 µM, hits give high values
[54] = system: Sigma receptor 1; details: at 10 µM, hits give high values
[55] = target: Muscarinic acetylcholine receptor M2 (Homo sapiens) (UniProt P08172); details: at 10 µM, hits give high values
Sequence of Muscarinic acetylcholine receptor M2 (Homo sapiens) (P08172 whole entry, looked up): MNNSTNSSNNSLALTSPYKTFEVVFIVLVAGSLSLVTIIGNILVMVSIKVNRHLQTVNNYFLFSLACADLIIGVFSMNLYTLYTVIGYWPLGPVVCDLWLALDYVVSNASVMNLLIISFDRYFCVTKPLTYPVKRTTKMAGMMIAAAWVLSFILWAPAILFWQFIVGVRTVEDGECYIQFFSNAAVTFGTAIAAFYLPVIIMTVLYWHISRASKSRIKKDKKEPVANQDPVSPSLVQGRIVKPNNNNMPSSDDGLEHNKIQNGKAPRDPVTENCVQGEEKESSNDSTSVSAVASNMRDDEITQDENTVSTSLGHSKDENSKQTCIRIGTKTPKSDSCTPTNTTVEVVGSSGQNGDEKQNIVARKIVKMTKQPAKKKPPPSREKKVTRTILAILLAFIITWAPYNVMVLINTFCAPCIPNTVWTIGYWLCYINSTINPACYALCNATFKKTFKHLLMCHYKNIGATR

[56] = system: Glutamate receptor NMDA PCP site; details: at 10 µM, hits give high values
[57] = system: Histamine receptor H2; details: at 10 µM, hits give high values
[58] = system: Nicotinic receptor A3B4; details: at 10 µM, hits give high values
[59] = system: Dopamine receptor D4; details: at 10 µM, hits give high values
[60] = system: Serotonin receptor 5ht1b; details: at 10 µM, hits give high values
[61] = system: Adrenergic receptor Alpha1A; details: at 10 µM, hits give high values
[62] = target: Alpha-2B adrenergic receptor (Homo sapiens) (UniProt P18089); details: Adrenergic receptor Alpha2B, at 10 µM, hits give high values

inhibition [1]: 50.7% | inhibition [2]: 1% (inactive) | inhibition [3]: 45.5% (inactive) | inhibition [4]: 2.3% (inactive) | inhibition [5]: -18% (inactive) | inhibition [6]: 34.4% (inactive) | inhibition [7]: 98.2% | inhibition [8]: -5.5% (inactive) | inhibition [9]: 4% (inactive) | inhibition [10]: 46.4% (inactive) | inhibition [11]: 33.2% (inactive) | inhibition [12]: 30.8% (inactive) | inhibition [13]: 16.1% (inactive) | inhibition [14]: 38.3% (inactive) | inhibition [15]: 1.1% (inactive) | inhibition [16]: 60.5% | inhibition [17]: 9% (inactive) | inhibition [18]: 4% (inactive) | inhibition [19]: -0.9% (inactive) | inhibition [20]: 8.9% (inactive) | inhibition [21]: 3.8% (inactive) | inhibition [22]: 10.1% (inactive) | inhibition [23]: 62.4% | inhibition [24]: 4% (inactive) | inhibition [25]: 16.3% (inactive) | inhibition [26]: -5.7% (inactive) | inhibition [27]: 38.4% (inactive) | inhibition [28]: -4% (inactive) | inhibition [29]: 23.6% (inactive) | inhibition [30]: 16.8% (inactive) | inhibition [31]: 3.5% (inactive) | inhibition [32]: 16.4% (inactive) | inhibition [33]: 44.8% (inactive) | inhibition [34]: 0% (inactive) | inhibition [35]: 45.6% (inactive) | inhibition [36]: -19.4% (inactive) | inhibition [37]: 16% (inactive) | inhibition [38]: 16.2% (inactive) | inhibition [39]: 84.3% | inhibition [40]: -0.5% (inactive) | inhibition [41]: 25% (inactive) | inhibition [42]: -5.8% (inactive) | inhibition [43]: 19.3% (inactive) | inhibition [44]: 5% (inactive) | inhibition [45]: 22.6% (inactive) | inhibition [46]: 1.4% (inactive) | inhibition [47]: 32.1% (inactive) | inhibition [48]: 7% (inactive) | inhibition [49]: 23.8% (inactive) | inhibition [50]: 23.5% (inactive) | inhibition [51]: 13.1% (inactive) | inhibition [52]: 59.2% | inhibition [53]: -2.4% (inactive) | inhibition [54]: 50.1% | inhibition [55]: 22.4% (inactive) | inhibition [56]: 25% (inactive) | inhibition [57]: 43% (inactive) | inhibition [58]: 0% (inactive) | inhibition [59]: 34.7% (inactive) | inhibition [60]: 11.3% (inactive) | inhibition [61]: 36.3% (inactive) | inhibition [62]: 58.8%
SMILES: CN1c2ccccc2Sc2cc(N)ccc21
